# Source: US20240352145A1, “EFFICACY OF ANTI-TROP-2-SN-38 ANTIBODY DRUG CONJUGATES FOR THERAPY OF TUMORS RELAPSED/REFRACTORY TO CHECKPOINT INHIBITORS” (Immunomedics, Inc., priority 2016, published 2024)
# B1: ^90Y-hPAM4 (conjugate, chains of the INN, looked up)
# VH: QVQLQQSGAEVKKPGASVKVSCEASGYTFPSYVLHWVKQAPGQGLEWIGYINPYNDGTQYNEKFKGKATLTRDTSINTAYMELSRLRSDDTAVYYCARGFGGSYGFAYWGQGTLVTVSS
# VL: DIQLTQSPSSLSASVGDRVTMTCSASSSVSSSYLYWYQQKPGKAPKLWIYSTSNLASGVPARFSGSGSGTDFTLTISSLQPEDSASYFCHQWNRYPYTFGGGTRLEIK
# modifications: 90Y radiolabel
# B2: hPAM4 (antibody, chains of the INN, looked up, V domains shown)
# VH: QVQLQQSGAEVKKPGASVKVSCEASGYTFPSYVLHWVKQAPGQGLEWIGYINPYNDGTQYNEKFKGKATLTRDTSINTAYMELSRLRSDDTAVYYCARGFGGSYGFAYWGQGTLVTVSS
# VL: DIQLTQSPSSLSASVGDRVTMTCSASSSVSSSYLYWYQQKPGKAPKLWIYSTSNLASGVPARFSGSGSGTDFTLTISSLQPEDSASYFCHQWNRYPYTFGGGTRLEIK
# Columns and labels:
# Capan-1 tumors = test: Capan-1 xenograft therapy; type: in vivo, mouse; conditions: for tumor volume (TV): day 49, 0.4 mg/kg SN-38; for tumor-free mice at end of study: day 140; for average tumor size: day 35, 0.4 mg SN-38/kg
# Experimental: (§1) NCr female athymic nude (nu/nu) mice, 4 to 8 weeks old, and male Swiss-Webster mice, 10 weeks old, were purchased from Taconic Farms. Tolerability studies were performed in Cynomolgus monkeys (Macaca fascicularis; 2.5-4 kg male and female) by SNBL USA, Ltd. Animals were implanted subcutaneously with different human cancer cell lines. Tumor volume (TV) was determined by measurements in 2 dimensions using calipers, with volumes defined as: L×w^2/2, where L is the longest dimension of the tumor and w is the shortest. […] This dosing frequency reflected a consideration of the conjugate's serum half-life […], to allow a more continuous exposure to the ADC.
# (§2) Statistics—Growth curves are shown as percent change in initial TV over time. Statistical analysis of tumor growth was based on area under the curve (AUC). Profiles of individual tumor growth were obtained through linear-curve modeling. An f-test was employed to determine equality of variance between groups before statistical analysis of growth curves. A 2-tailed t-test was used to assess statistical significance between the various treatment groups and controls, except for the saline control, where a 1-tailed t-test was used (significance at P≤0.05). Statistical comparisons of AUC were performed only up to the time that the first animal within a group was euthanized due to progression.
# COLO 205 tumors = test: COLO 205 xenograft therapy; type: in vivo; conditions: for tumor volume (TV): 0.4 mg/kg, q4dx8, 28-day treatment period
# BxPC-3 [1] = test: ADCC activity of hRS7-ADC conjugates; type: cell-based, human; conditions: 33.3 nM; PBMC effector to target ratio 100:1
# From the text: PBMCs were purified from blood purchased from the Blood Center of New Jersey. A Trop-2-positive human pancreatic adenocarcinoma cell line (BxPC-3) was used as the target cell line with an effector to target ratio of 100:1.
# [2] = in vivo; cited from earlier work
# [3] = mouse, in vivo
# From the text: Pharmacokinetics—Naive female NCr nude (nu/nu) mice, 8-10 weeks old, were purchased from Taconic Farms (Germantown, NY). […] ELISA was utilized to determine serum concentrations of total hRS7 IgG by competing for the binding to an anti-hRS7 IgG idiotype antibody with a horseradish peroxidase conjugate of hRS7. […] Pharmacokinetic (PK) parameters were computed by noncompartmental analysis using Phoenix WinNonlin software (version 6.3; Pharsight Corp., Mountainview, CA).
# Trop-2 = molecular target: T1, Trop-2 (Homo sapiens, UniProt P09758); test: In vitro cell binding, multiple cell lines; parameters: endogenous in cells; host or cells: human cancer cell lines (ATCC)
# T1 sequence (P09758 27-323): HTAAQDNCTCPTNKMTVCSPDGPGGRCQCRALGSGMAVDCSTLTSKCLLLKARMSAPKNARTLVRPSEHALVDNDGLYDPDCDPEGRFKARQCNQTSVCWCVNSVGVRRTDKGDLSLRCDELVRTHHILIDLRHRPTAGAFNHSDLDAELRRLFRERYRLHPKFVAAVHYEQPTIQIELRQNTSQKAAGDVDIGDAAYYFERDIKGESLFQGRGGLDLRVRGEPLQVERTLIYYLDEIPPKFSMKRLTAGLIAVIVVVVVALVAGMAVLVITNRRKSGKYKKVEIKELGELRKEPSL
# Experimental: In Vitro Cell Binding—LumiGLO Chemiluminescent Substrate System (KPL, Gaithersberg, MD) was used to detect antibody binding to cells. Briefly, cells were plated into a 96 black-well, flat-clear-bottom plate overnight. Antibodies were serially diluted 1:2 and added in triplicate, yielding a concentration range from 0.03 to 66.7 nM. After incubating for 1 h at 4° C., the media was removed and the cells washed with fresh cold media followed by the addition of a 1:20,000 dilution of goat-antihuman horseradish peroxidase-conjugated secondary antibody (Jackson Immunoresearch, West Grove, PA) for 1 h at 4° C. The plates were again washed before the addition of the LumiGLO reagent. Plates were read for luminescence using an Envision plate reader (Perkin Elmer, Boston MA). Data were analyzed by non-linear regression to determine the equilibrium dissociation constant (KD). Statistical comparisons of KD-values were made with Prism GraphPad Software (v4.03) (Advanced Graphics Software, Inc.; Encinitas, CA) using an F-Test on the best-fit curves for the data. Significance was set at P<0.05.
# BxPC-3 [4] = test: dsDNA breaks, γH2AX induction in BxPC-3; type: cell-based, human; conditions: BxPC-3, 20 μg/ml for 30 min
# Experimental: Assessment of Double-Stranded DNA Breaks In Vitro—For drug activity testing, BxPC-3 cells were seeded in 6-well plates at 5×10^5 cells/well and held at 37° C. overnight. […] The following morning, cells were trypsinized briefly, spun down, stained with Fixable Viability Stain 450 (BD Biosciences, San Jose, CA), washed with 1% BSA-PBS, and then fixed in 4% formalin for 15 min, washed again and permeabilized in 0.15% Triton-X100 in PBS for another 15 min. After washing twice with 1% BSA-PBS, cells were incubated with mouse anti-γH2AX-AF488 (EMD Millipore Corporation, Temecula, CA) for 45 min at 4° C. The signal intensity of γH2AX was measured by flow cytometry using a BD FACSCanto (BD Biosciences, San Jose, CA).
# [5] = test system: BxPC-3 human pancreatic tumors; test: BxPC-3 xenograft therapy; type: in vivo, mouse; conditions: day 21; equivalent amounts of ADC
# Experimental: as §1, §2
# [6] = test system: human gastric carcinoma xenograft, NCI-N87; test: NCI-N87 gastric carcinoma xenograft, Example 17; type: in vivo, mouse
# From the text: (§3) In Vivo Therapeutic Studies—NCr female athymic nude (nu/nu) mice, 4-8 weeks old, were purchased from Taconic Farms (Germantown, NY). NCI-N87 gastric tumor xenografts were established by harvesting cells from tissue culture and making a final cell suspension 1:1 in matrigel (BD Bioscience; San Jose, CA), with each mouse receiving a total of 1×10^7 cells s.c. in the right flank. For BxPC-3. xenografts of 1 g were harvested, and a tumor suspension made in HBSS to a concentration of 40% tumor w/v. This suspension was mixed 1:1 with matrigel for a final tumor suspension of 20% w/v. […] For IHC, tumors were allowed to grow to approximately 0.5 cm^3 before the mice were euthanized and the tumors removed, formalin-fixed and paraffin-embedded. For therapy studies, mice were randomized into treatment groups and therapy begun when tumor volumes were approximately 0.25 cm^3.
# (§4) Mice were euthanized and deemed to have succumbed to disease once tumors grew to greater than 1.0 cm^3 in size. […] Time to progression (TTP) was determined as time post-therapy initiation when the tumor grew more than 20% in size from its nadir.
# Survival studies were analyzed using Kaplan-Meier plots (log-rank analysis), using the Prism GraphPad Software (v4.03) software package (Advanced Graphics Software, Inc., Encinitas, CA).
# [7] = test system: NCI-N87 human gastric tumor xenografts; test: Dose schedules and chronic dosing, NCI-N87 xenograft; type: in vivo, mouse; conditions: four cycles
# From the text: as §3, §4
# A similar dose schedule experiment was performed in mice bearing NCI-N87 human gastric tumor xenografts (not shown). […] Likewise, in terms of overall survival, while all three dose schedules provided a significant survival benefit when compared to untreated control (P<0.0001), there were no differences between any of these three different schedules.
# In all, four treatment cycles were administered to the animals.
# [8] = animals given irinotecan; Goldenberg et al., 2014; cited from earlier work
# [9] = Irinotecan MTD and conversion in mice; type: in vivo, mouse
# [10] = weekly x 4 doses; Camptosar package insert; cited from earlier work
# MDA-MB-468 TNBC tumors = test: MDA-MB-468 TNBC xenograft; type: in vivo, mouse; conditions: one animal each, tumors progressed to ~0.7 cm^3 on irinotecan
# Calu-3 = Calu-3 xenograft therapy; type: in vivo, mouse; conditions: for tumor volume (TV): 0.04 mg SN-38/kg every 4 days x 4; for outcome: 0.4 mg/kg SN-38
# pancreatic cancer = test: PAM4 clinical trial, 90Y-hPAM4 with gemcitabine; type: in vivo, human; conditions: 22 CT-assessable patients
# Experimental: In the ongoing PAM4 clinical trials, a four week clinical treatment cycle is performed. In week 1, subjects are administered a dose of ^111In-hPAM4, followed at least 2 days later by gemcitabine dose. In weeks 2, 3 and 4, subjects are administered a ^90Y-hPAM4 dose, followed at least 2 days later by gemcitabine (200 mg/m^2). Escalation started at 3×6.5 mCi/m^2. The maximum tolerated dose in front-line pancreatic cancer patients was 3×15 mCi/m^2 (hematologic toxicity is dose-limiting).
# Capan-1 = test: Combination 90Y-hPAM4 RAIT + ADC, Capan-1 xenograft; type: in vivo, mouse
# From the text: Objective responses occurred in most animals, but they were more robust in both of the combination groups as compared to each agent given alone. […] These studies provide the first evidence that combined radioimmunotherapy and ADC enhances efficacy at safe doses.
# [11] = 0.2 mg/kg SN-38 twice weekly x 4 weeks
molecule,measurement,setting,value
hA20-CL2-SN-38 [reference compound],tumor volume (TV),Capan-1 tumors,0.80±0.68 cm^3
same,tumor volume (TV),COLO 205 tumors,1.19±0.59 cm^3
hRS7-Pro-2-PDox,specific lysis (ADCC),BxPC-3 [1],not significantly different
veltuzumab,immunogenicity in subjects,[2],less immunogenic in subjects than rituximab
hRS7-NEM [reference compound],"half-life, Cmax, AUC, clearance, MRT vs parental hRS7",[3],no significant differences
same,KD,Trop-2,sub-nanomolar range
same,specific lysis (ADCC),BxPC-3 [1],no difference between hRS7-NEM and sacituzumab govitecan
hA20-CL2A-SN-38 [reference compound],"Percent Positive, γH2AX","BxPC-3 [4]; untreated 18.8 ± 6.3, listed as hA20-SN-38",12.7 ± 2.4%
same,"Mean Fluorescence Intensity, γH2AX",BxPC-3 [4]; untreated 2516 ± 191,2246 ± 58
same,tumor volume (TV),[5],1.05±0.73 cm^3
same,median survival time (MST),[6]; 14 days for saline control,24 days
same,mean time to progression (TTP),"[6]; mouse, in vivo",4.1 ± 2.0 days
same,TTP,"[7]; 0.5 mg once a week for two weeks, one week off",4.7 ± 2.2 days
same,median survival,[7]; chronic dosing,21 days
same,tumor-free mice at end of study,Capan-1 tumors; [11],20%
"CCc1c2c(nc3ccc(OC(=O)N4CCC(N5CCCCC5)CC4)cc13)-c1cc3c(c(=O)n1C2)COC(=O)[C@]3(O)CC [irinotecan, 7-ethyl-10-[4-(1-piperidino)-1-piperidino]carbonyloxycamptothecin]",share of total serum SN-38 that is glucuronidated,[8],> 50%
same,MTD,"[9]; IV, single injection",40 mg/kg
same,MTD,[9]; q2dx5,24 mg SN-38/kg
same,grades 3 and 4 late diarrhea,[10],31%
same,average tumor size,Capan-1 tumors,1.78±0.62 cm^3
same,decrease in tumor size after re-treatment,MDA-MB-468 TNBC tumors,23%
same,efficacy of irinotecan at MTD,"COLO 205 tumors; 24 mg SN-38/kg, q2dx5",as effective as hRS7-CL2-SN-38
hRS7-CL2-SN-38,tumor volume (TV),Calu-3,0.14±0.22 cm^3
same,outcome,Calu-3,remained tumor-free until the end of the study on day 147
same,tumor growth vs untreated and hA20-CL2A-SN-38,Capan-1 tumors; [11],significantly inhibited tumor growth
same,average tumor size,Capan-1 tumors,0.04±0.05 cm^3
same,tumor volume (TV),Capan-1 tumors,0.17±0.18 cm^3
same,tumor-free mice at end of study,Capan-1 tumors; [11],40%
same,tumor growth vs untreated and hA20-CL2A-SN-38,COLO 205 tumors; 0.4 mg/kg SN-38 twice weekly x 4 weeks,significantly inhibited tumor growth
same,tumor volume (TV),COLO 205 tumors,0.16±0.09 cm^3
hLL2-CL2-SN-38 [reference compound],tumor volume (TV),Calu-3,0.80±0.91 cm^3
same,outcome,Calu-3,tumors regrew
B1,disease control rate (CR+PR+SD),pancreatic cancer,68%
same,partial responses,pancreatic cancer,23%
same,stabilization as best response,pancreatic cancer,45%
same,tumor-free mice after 20 weeks,"Capan-1; 75 μCi 90Y-hPAM4 level, ADC alone, or their combination, n=10",1 of 10
same,tumor-free animals,"Capan-1; 130 μCi 90Y-hPAM4 level, n=10",5 of 10
B2,anti-tumor activity of unconjugated antibodies,Capan-1; given alone,Neither unconjugated hPAM4 nor hRS7 antibodies had anti-tumor activity
